# Laboratory results: PMC6013238, “Development of novel NEMO-binding domain mimetics for inhibiting IKK/NF-κB activation” (PLoS Biology, 2018)
# pIC50: −log10 of the molar value. Several values for one entry are separate records, joined by “and”; a condition that tells them apart may be missing. Equal entries are not always repeated. Where two headings read alike, the source gives them in different places.
# Experiments:
# NF-κB activation = experiment: Dual-luciferase (NF-κB firefly/SV40-Renilla) reporter assay, TNF-α-stimulated HEK293 cells; format: cell-based, human; details: for Relative luciferase activity (NF-κB/Renilla): Fig 4B, CTRL about 1; for NF-κB luciferase activity, dose-dependent curve: Fig S1A, CTRL about 100; for pIC50: Homo sapiens, HEK293, luciferase assays at 0, 25, 50, 100, 150 μM, GraphPad, read-out: IC50 of inhibition of TNF-α-mediated NF-κB activation
# NF-κB target genes = experiment: qRT-PCR of NF-κB target genes in LPS-stimulated Raw 264.7 cells; format: cell-based, mouse; details: LPS 1 μg/ml 2 h; for Effect on transcription of NF-κB target genes (COX-2, IL-6, IL-1β, TNF-α, IκBα, iNOS): 50 μM
# [1] = Plasma and tissue concentrations 2 h after a single i.p. injection; format: in vivo, mouse; details: for concentration at 2 h: male, C57BL/6J, mouse, ip, 10 mg/kg
# Procedure: To determine the stability of the NBD mimetics in vivo, their levels were measured in the plasma of mice 2 h post i.p. injection with 10 mg/kg of each compound. The concentration of SR12460 was very high in plasma (>6.5 μg/mL; 20 μM), while levels in brain, muscle, spleen, and liver were lower. SR12343 and SR12454 had lower plasma concentrations, with SR12343 showing a higher level in liver and SR12454 showing higher concentrations in muscle and spleen. The level of SR11481 was undetectable in plasma and tissues (Fig 6A).
# Fig 6 Newly identified NBD mimetics suppress LPS-induced acute inflammation in vivo. (A) The bioavailability property of SR12460, SR12343, SR12454, and SR11481. Concentrations of NBD mimetics were determined in plasma, brain, muscle, spleen, and liver 2 h post a single i.p. injection of 10 mg/kg of drugs; n = 3 per group. (B) Shown is the model to induce LPS-mediated acute inflammation and the treatment regimen with NBD mimetics. Mouse image via http://www.clker.com/clipart-mice-blank.html (copyright-free). (C) NBD mimetics suppressed LPS-induced acute inflammation in liver and lung by down-regulating NF-κB target gene expression. Vehicle, SR12343, SR12460, and 8K-NBD peptide were dosed at 10 mg/kg 30 min prior to the LPS treatment. Acute inflammation was induced by i.p. injection of 10 mg/kg LPS. Lung and liver were collected 2–4 h post injection, and mRNA was extracted for qRT-PCR analysis. (D, E) Western blot analysis was performed to probe for the expression of p-IκBα and COX-2 at protein level in liver and lung tissues. (F) Serum levels of IL-6 were determine by ELISA. n = 3–8 each group. *P < 0.05, **P < 0.01. Underlying data can be found in S1 Data. COX-2, cyclooxygenase 2; IL-6, interleukin 6; i.p., intraperitoneal; LPS, lipopolysaccharide; NBD, NEMO-binding domain; n.d., nondetectable; NEMO, NF-κB essential modulator; NF-κB, nuclear factor κB; qRT-PCR, quantitative real-time polymerase chain reaction. TEXT PRINTED IN THE PICTURE: (A) SR11481: Concentration (ng/ml): n.d. (plasma)
# The pharmacokinetic profile of the NBD mimetics was determined in male C57BL/6J mice (n = 3). The drugs were formulated in 10:10:80 of DMSO:Tween 80:water and were dosed by i.p. injection at a final dose of 10 mg/kg. Blood, brain, muscle, spleen, and liver were collected 2 h post treatment and were analyzed by mass spectrometry by following a protocol previously described.
# [2] = Mouse PK, i.v. and oral gavage; format: in vivo; details: for bioavailability: PO 10mg/Kg versus IV, Avg.
# Procedure: Supplementary file pbio.2004663.s002.tif: S1 Fig IC50 and the complete pharmacokinetic profiles of NBD mimetics. (A) Dose-dependent curve of NBD mimetics ranging from 0 to 150 μM was determined by NF-κB luciferase assays in HEK293 cells. (B) Complete pharmacokinetic profiles of SR12460 and SR12343 administered i.v. or by oral gavage in mice. Underlying data can be found in S1 Data. AUC%Extrap, percentage of the area under the curve extrapolated to infinity from Tlast to infinity; AUCINF_obs, area under the curve from 0 to infinity; AUClast, area under the curve from the time of dosing to the last measurable concentration; Cmax, maximum observed concentration; Clobs, total serum clearance; HEK, human embryonic kidney 293 cells; IC50, half maximal inhibitory concentration; NBD, NEMO-binding domain; NEMO, NF-κB essential modulator; NF-κB, nuclear factor κB; T1/2, half-life; Tmax, time of maximum concentration. (TIF) Click here for additional data file.
# [3] = Fig 4C, IKKi VII 2 μM, 8K-NBD 200 μM, SR compounds 50 μM, relative to no LPS
# [4] = 2 h post single i.p. 10 mg/kg, single mice
# [5] = plasma, 2 h post single i.p. 10 mg/kg, single mice, read-out: Concentration in plasma
# [6] = spleen, 2 h post single i.p. 10 mg/kg, single mice, read-out: Concentration in spleen
# [7] = IV 2mg/Kg, single mice and Avg., 2 mg/kg
# [8] = IV 2mg/Kg, single mice and Avg., 2 mg/kg, mean
# [9] = PO 10mg/Kg, single mice and Avg., 10 mg/kg
# [10] = PO 10mg/Kg, single mice and Avg., 10 mg/kg, mean
# [11] = mouse, serum, po, 10 mg/kg, PO 10mg/Kg, single mice and Avg.
structure (smiles),measurement,setting,value
O=C(CNCCc1cc(F)cc(F)c1)Nc1ccc(Cl)cn1 [SR12460],Relative luciferase activity (NF-κB/Renilla),NF-κB activation; 25 μM,0.1864 and 0.2241 and 0.2663
same,Relative luciferase activity (NF-κB/Renilla),NF-κB activation; 50 μM,0.09822 and 0.1016 and 0.1003
same,Relative luciferase activity (NF-κB/Renilla),NF-κB activation; 100 μM,0.1076 and 0.0851 and 0.1209
same,Relative luciferase activity (NF-κB/Renilla),NF-κB activation; 150 μM,0.09311 and 0.129 and 0.1129
same,"NF-κB luciferase activity, dose-dependent curve",NF-κB activation; 25 μM,18.6398 and 22.411 and 26.6317
same,"NF-κB luciferase activity, dose-dependent curve",NF-κB activation; 50 μM,9.822 and 10.1552 and 10.0281
same,"NF-κB luciferase activity, dose-dependent curve",NF-κB activation; 100 μM,10.7557 and 8.5097 and 12.0922
same,"NF-κB luciferase activity, dose-dependent curve",NF-κB activation; 150 μM,9.311 and 12.8976 and 11.2908
same,pIC50,NF-κB activation,4.95
same,COX2 mRNA expression (qRT-PCR),NF-κB target genes; [3],38.9806 and 69.3201 and 44.3249
same,IL-1b mRNA expression (qRT-PCR),NF-κB target genes; [3],108.936
same,iNOS mRNA expression (qRT-PCR),NF-κB target genes; [3],2.289 and 2.778
same,"Effect on transcription of NF-κB target genes (COX-2, IL-6, IL-1β, TNF-α, IκBα, iNOS)",NF-κB target genes,significantly inhibit the transcription of all NF-κB target genes tested
same,Concentration in liver,[1]; [4],265 ng/mL and 390 ng/mL
same,Concentration in muscle,[1]; [4],602 ng/mL and 852 ng/mL
same,Concentration in plasma,[1]; [4],5470 ng/mL and 7970 ng/mL
same,Concentration in spleen,[1]; [4],905 ng/mL and 1250 ng/mL
same,concentration at 2 h,"[1]; liver, 2 h post single i.p. 10 mg/kg, single mice, read-out: Concentration in liver",442 ng/mL
same,concentration at 2 h,"[1]; muscle, 2 h post single i.p. 10 mg/kg, single mice, read-out: Concentration in muscle",846 ng/mL
same,concentration at 2 h,"[1]; plasma, 2 h post i.p. 10 mg/kg, read-out: Concentration in plasma",> 6500 ng/mL and 20 µM
same,concentration at 2 h,[1]; [5],6520 ng/mL
same,concentration at 2 h,[1]; [6],930 ng/mL
same,AUC %Extrap,[2]; [7],17.95% and 11.52%
same,MRTINF_obs,[2]; [7],3.50 h
same,T1/2,[2]; [7],2.57 h
same,Vss_obs,[2]; [7],0.17 L/kg and 0.30 L/kg
same,AUC %Extrap,[2]; [8],14.74%
same,MRTINF_obs,[2]; [8],3.99 h
same,T1/2,[2]; [8],2.99 h
same,Vss_obs,[2]; [8],0.23 L/kg
same,T1/2,[2]; [9],1.99 h and 1.74 h
same,Tmax,[2]; [9],1.00 h
same,T1/2,[2]; [10],2.35 h
same,Tmax,[2]; [10],0.67 h
same,half-life,"[2]; mouse, serum, iv, 2 mg/kg, IV 2mg/Kg, single mice and Avg.",3.42 h
same,MRT inf,"[2]; mouse, serum, iv, 2 mg/kg, IV 2mg/Kg, single mice and Avg., read-out: MRTINF_obs",4.49 h
same,AUC(0-t),[2]; [11],47600 ng·h/mL and 146 µM·h
same,Cmax,[2]; [11],11200 ng/mL and 34.5 µM
same,half-life,[2]; [11],3.31 h
same,Tmax,"[2]; mouse, serum, po, 10 mg/kg, PO 10mg/Kg, single mice and Avg., read-out: Tmax",0.5 h
same,bioavailability,"[2]; mouse, serum",20.1%
O=C(CNc1ccc(Cl)cn1)NCCc1cccc(Br)c1 [SR12343],Relative luciferase activity (NF-κB/Renilla),NF-κB activation; 25 μM,0.621 and 0.6268 and 0.6057
same,Relative luciferase activity (NF-κB/Renilla),NF-κB activation; 50 μM,0.3824 and 0.4086 and 0.3925
same,Relative luciferase activity (NF-κB/Renilla),NF-κB activation; 100 μM,0.327 and 0.2292 and 0.2181
same,"NF-κB luciferase activity, dose-dependent curve",NF-κB activation; 25 μM,62 and 63 and 60
same,"NF-κB luciferase activity, dose-dependent curve",NF-κB activation; 50 μM,38 and 41 and 39
same,"NF-κB luciferase activity, dose-dependent curve",NF-κB activation; 100 μM,33 and 23 and 22
same,pIC50,NF-κB activation,4.43
same,COX2 mRNA expression (qRT-PCR),NF-κB target genes; [3],201.141 and 209.385
same,IL6 mRNA expression (qRT-PCR),NF-κB target genes; [3],204.868 and 211.79
same,IL-1b mRNA expression (qRT-PCR),NF-κB target genes; [3],270.981 and 273.172
same,TNFa mRNA expression (qRT-PCR),NF-κB target genes; [3],84.4509 and 85.4634
same,iNOS mRNA expression (qRT-PCR),NF-κB target genes; [3],6.825 and 6.083
same,ikBa mRNA expression (qRT-PCR),NF-κB target genes; [3],15.399 and 14.5661
same,"Effect on transcription of NF-κB target genes (COX-2, IL-6, IL-1β, TNF-α, IκBα, iNOS)",NF-κB target genes,"significant inhibition on COX-2, IL-6, and iNOS expression"
same,Concentration in brain,[1]; [4],45.7 ng/mL and 29.2 ng/mL
same,Concentration in plasma,[1]; [4],14.7 ng/mL and 8.4 ng/mL
same,Concentration in spleen,[1]; [4],26.6 ng/mL and 25.1 ng/mL
same,concentration at 2 h,"[1]; brain, 2 h post single i.p. 10 mg/kg, single mice, read-out: Concentration in brain",31.8 ng/mL
same,concentration at 2 h,[1]; [5],14.3 ng/mL
same,concentration at 2 h,[1]; [6],24.7 ng/mL
same,AUC %Extrap,"[2]; IV 1mg/Kg, single mice and Avg., 1 mg/kg",0.68% and 0.92% and 0.30%
same,AUC %Extrap,"[2]; IV 1mg/Kg, single mice and Avg., 1 mg/kg, mean",0.63%
same,AUC %Extrap,[2]; [9],0.51% and 0.40% and 0.32%
same,AUCINF_obs,[2]; [9],11013 ng·min/mL and 20121 ng·min/mL
same,Cl_obs,[2]; [9],862.00 mL/min/kg and 908.01 mL/min/kg and 497.00 mL/min/kg
same,T1/2,[2]; [9],0.50 h
same,AUC %Extrap,[2]; [10],0.41%
same,AUCINF_obs,[2]; [10],14245 ng·min/mL
same,Cl_obs,[2]; [10],755.67 mL/min/kg
same,T1/2,[2]; [10],0.53 h
same,Oral activity (comparison),[2]; S1B Fig,not as orally active as SR123460
same,Tmax,"[2]; mouse, serum, iv, 1 mg/kg, IV 1mg/Kg, single mice and Avg., read-out: Tmax",0.08 h
same,AUC(0-t),[2]; [11],192 ng·h/mL and 0.52 µM·h
same,Cmax,[2]; [11],523 ng/mL and 1.43 µM
same,half-life,[2]; [11],0.58 h
same,AUC(0-inf),"[2]; mouse, serum, po, 10 mg/kg, PO 10mg/Kg, single mice and Avg., read-out: AUCINF_obs (converted)",193 ng·h/mL
same,bioavailability,"[2]; mouse, serum",0.86%
